Patent US20260215428A1, “WEED CONTROL METHOD” (SYNGENTA CROP PROTECTION AG, priority 2023, published 2026)

Experiments:
Type in all cases: in vivo
Eleusine indica = assay: Further glasshouse test versus other ACCase-inhibiting herbicides, Table B2-2; details: 21 days after application
Text: (§1) Further tests were employed to test the efficacy of a compound of Formula I versus other ACCase-inhibiting herbicides. The five main targets were Lolium multiflorum, Eleusine indica, Digitaria insularis, Sorghum halepense and Echinochloa crus-galli. Collectively, the populations contained all the major target-site resistance mutations affecting ACCase herbicides. Two L. multiflorum (LM-NTSR-1 and LM-NTSR-2) and one E. crus-galli (ECG-NTSR-1) populations were characterised exclusively by non-target-site resistance (“NTSR”). The target-site resistant L. multiflorum and E. indication populations were 100% homozygous for different ACCase mutations whilst the D. insularis, S. halepense and E. crus-galli samples contained a mixture of homozygous wild and mutant individuals at different genotypic frequencies. Additional underlying NTSR cannot be ruled out in the populations characterised by target-site resistance.
(§2) Around 50 seeds of each of the 24 weed populations were sown in 12-cm pots containing a mixture of peat and compost in a 1:1 ratio. The pots were watered, fertilised and kept in controlled glasshouse conditions set at 24° C./16 hr day, 18° C. night, 65% relative humidity, and a photon flux density of approximately 250 μmol quanta m^−2 s^−1 for Lolium multiflorum. The E. indica, D. insularis, S. halepense and E. crus-galli plants were kept in a separate glasshouse bay characterised by a 17 H photoperiod of 180 μmol m^−2 s^−1 with temperatures of 25° C. day and 19° C. night and 65% relative humidity. When the plants were at the two to four-leaf stage, they were treated with the various ACCase-inhibiting herbicides at 0, 15, 30, 60, 120 and 240 g ai ha^−1 in a spray cabinet mounted with a single mobile Teejet flat fan nozzle (11002VS) calibrated to deliver 200 L ha^−1 at 200 kPa. The L. multiflorum populations were treated by a compound of Formula Ic, clodinafop-propargyl, pinoxaden, cycloxydim and clethodim and the warm season grass weeds E. indica, D. insularis, S. halepense and E. crus-galli were sprayed with a Compound Ic and the commonly employed haloxyfop-methyl and clethodim. Three replicate pots were used per population. Plants were assessed for visual damage compared to the untreated control 21 days after application (0=0% damage; 100=100% damage).

Lolium multiflorum = assay: Glasshouse post-emergence test, visual damage, Table B1-1
Description: Seeds of a variety of test species are sown in standard soil in pots. For each treatment, three replicate pots containing 10-15 plants per one-inch pot were sprayed at the 2-3 leaf stage. Clethodim and Compound (Ic) were each applied at 15, 30, 60 and 120 g ai/ha. The test plants are then grown in a glasshouse under controlled conditions in a glasshouse (at 24/16° C., day/night; 14 hours light; 65% humidity) and watered twice daily. […]

Setaria viridis = assay: Glasshouse post-emergence test, visual damage, Table B1-5; details: 14 days after application
Description: (§3) Seeds of a variety of test species are sown in standard soil in pots. For each treatment, three replicate pots containing 10-15 plants per one-inch pot were sprayed at the 2-3 leaf stage. Clethodim and Compound (Ic) were each applied at 15, 30, 60 and 120 g ai/ha. The test plants are then grown in a glasshouse under controlled conditions in a glasshouse (at 24/16° C., day/night; 14 hours light; 65% humidity) and watered twice daily. Plants were assessed for visual damage compared to the untreated control 14 days after application (0=0% damage; 100=100% damage).

Sorghum halepense = assay: Further glasshouse test versus other ACCase-inhibiting herbicides, Table B2-4; details: 21 days after application
Text: as §1, §2

Digitaria sanguinalis = assay: Glasshouse post-emergence test, visual damage, Table B1-4; details: 14 days after application
Description: as §3

CCSC(C)CC1CC(=O)C(/C(CC)=N/OC/C=C/Cl)=C(O)C1 (stereo not drawn) [Clethodim, clethodim]
visual damage (Eleusine indica; biotype D2078G, 15 g/ha): 10% | visual damage (Eleusine indica; biotype D2078G, 30 g/ha): 27% | visual damage (Eleusine indica; biotype D2078G, 60 g/ha): 53% | visual damage (Eleusine indica; biotype D2078G, 120 g/ha): 100% | visual damage (Eleusine indica; biotype D2078G, 240 g/ha): 100% | visual damage (Eleusine indica; biotype G2096A, 15 g/ha): 7% | visual damage (Eleusine indica; biotype G2096A, 30 g/ha): 30% | visual damage (Eleusine indica; biotype G2096A, 60 g/ha): 78% | visual damage (Eleusine indica; biotype G2096A, 120 g/ha): 100% | visual damage (Eleusine indica; biotype G2096A, 240 g/ha): 100% | visual damage (Eleusine indica; biotype I2041N, 15 g/ha): 60% | visual damage (Eleusine indica; biotype I2041N, 30 g/ha): 27% | visual damage (Eleusine indica; biotype I2041N, 60 g/ha): 53% | visual damage (Eleusine indica; biotype I2041N, 120 g/ha): 100% | visual damage (Eleusine indica; biotype I2041N, 240 g/ha): 100% | visual damage (Eleusine indica; biotype Sensitive, 15 g/ha): 92% | visual damage (Eleusine indica; biotype Sensitive, 30 g/ha): 100% | visual damage (Eleusine indica; biotype Sensitive, 60 g/ha): 100% | visual damage (Eleusine indica; biotype Sensitive, 120 g/ha): 100% | visual damage (Eleusine indica; biotype Sensitive, 240 g/ha): 100% | visual damage (Eleusine indica; biotype W2027C, 15 g/ha): 93% | visual damage (Eleusine indica; biotype W2027C, 30 g/ha): 100% | visual damage (Eleusine indica; biotype W2027C, 60 g/ha): 100% | visual damage (Eleusine indica; biotype W2027C, 120 g/ha): 100% | visual damage (Eleusine indica; biotype W2027C, 240 g/ha): 100% | visual damage (Lolium multiflorum; biotype CC2027 (homozygous), 15 g/ha, 14 days after application): 53% | visual damage (Lolium multiflorum; biotype CC2027 (homozygous), 30 g/ha, 14 days after application): 77% | visual damage (Lolium multiflorum; biotype CC2027 (homozygous), 60 g/ha, 14 days after application): 100% | visual damage (Lolium multiflorum; biotype CC2027 (homozygous), 120 g/ha, 14 days after application): 100% | visual damage (Lolium multiflorum; biotype GG2078 (homozygous), 15 g/ha, 14 days after application): 0% | visual damage (Lolium multiflorum; biotype GG2078 (homozygous), 30 g/ha, 14 days after application): 20% | visual damage (Lolium multiflorum; biotype GG2078 (homozygous), 60 g/ha, 14 days after application): 20% | visual damage (Lolium multiflorum; biotype GG2078 (homozygous), 120 g/ha, 14 days after application): 50% | visual damage (Lolium multiflorum; biotype LL1781 (homozygous), 15 g/ha, 14 days after application): 23% | visual damage (Lolium multiflorum; biotype LL1781 (homozygous), 30 g/ha, 14 days after application): 37% | visual damage (Lolium multiflorum; biotype LL1781 (homozygous), 60 g/ha, 14 days after application): 60% | visual damage (Lolium multiflorum; biotype LL1781 (homozygous), 120 g/ha, 14 days after application): 70% | visual damage (Lolium multiflorum; biotype NN2041 (homozygous), 15 g/ha, 14 days after application): 70% | visual damage (Lolium multiflorum; biotype NN2041 (homozygous), 30 g/ha, 14 days after application): 100% | visual damage (Lolium multiflorum; biotype NN2041 (homozygous), 60 g/ha, 14 days after application): 100% | visual damage (Lolium multiflorum; biotype NN2041 (homozygous), 120 g/ha, 14 days after application): 100% | visual damage (Lolium multiflorum; biotype RR2088 (homozygous), 15 g/ha, 14 days after application): 0% | visual damage (Lolium multiflorum; biotype RR2088 (homozygous), 30 g/ha, 14 days after application): 20% | visual damage (Lolium multiflorum; biotype RR2088 (homozygous), 60 g/ha, 14 days after application): 60% | visual damage (Lolium multiflorum; biotype RR2088 (homozygous), 120 g/ha, 14 days after application): 60% | visual damage (Lolium multiflorum; biotype SS1999 (homozygous), 15 g/ha, 21 DAA): 27% | visual damage (Lolium multiflorum; biotype SS1999 (homozygous), 30 g/ha, 21 DAA): 98% | visual damage (Lolium multiflorum; biotype SS1999 (homozygous), 60 g/ha, 21 DAA): 100% | visual damage (Lolium multiflorum; biotype SS1999 (homozygous), 120 g/ha, 21 DAA): 100% | visual damage (Lolium multiflorum; biotype Sensitive, 15 g/ha, 14 days after application): 53% | visual damage (Lolium multiflorum; biotype Sensitive, 30 g/ha, 14 days after application): 73% | visual damage (Lolium multiflorum; biotype Sensitive, 60 g/ha, 14 days after application): 99% | visual damage (Lolium multiflorum; biotype Sensitive, 120 g/ha, 14 days after application): 100% | visual damage (Setaria viridis; biotype GG2078 (homozygous), 15 g/ha): 30% | visual damage (Setaria viridis; biotype GG2078 (homozygous), 30 g/ha): 60% | visual damage (Setaria viridis; biotype GG2078 (homozygous), 60 g/ha): 63% | visual damage (Setaria viridis; biotype GG2078 (homozygous), 120 g/ha): 67% | visual damage (Setaria viridis; biotype II1781 (homozygous), 15 g/ha): 80% | visual damage (Setaria viridis; biotype II1781 (homozygous), 30 g/ha): 100% | visual damage (Setaria viridis; biotype II1781 (homozygous), 60 g/ha): 100% | visual damage (Setaria viridis; biotype II1781 (homozygous), 120 g/ha): 100% | visual damage (Setaria viridis; biotype LL1781 (homozygous), 15 g/ha): 50% | visual damage (Setaria viridis; biotype LL1781 (homozygous), 30 g/ha): 60% | visual damage (Setaria viridis; biotype LL1781 (homozygous), 60 g/ha): 60% | visual damage (Setaria viridis; biotype LL1781 (homozygous), 120 g/ha): 53% | visual damage (Setaria viridis; biotype Sensitive, 15 g/ha): 90% | visual damage (Setaria viridis; biotype Sensitive, 30 g/ha): 98% | visual damage (Setaria viridis; biotype Sensitive, 60 g/ha): 100% | visual damage (Setaria viridis; biotype Sensitive, 120 g/ha): 100% | visual damage (Sorghum halepense; biotype Sensitive, 15 g/ha): 83% | visual damage (Sorghum halepense; biotype Sensitive, 30 g/ha): 98% | visual damage (Sorghum halepense; biotype Sensitive, 60 g/ha): 100% | visual damage (Sorghum halepense; biotype Sensitive, 120 g/ha): 93% | visual damage (Sorghum halepense; biotype Sensitive, 240 g/ha): 98% | visual damage (Sorghum halepense; biotype W2027C, 15 g/ha): 50% | visual damage (Sorghum halepense; biotype W2027C, 30 g/ha): 92% | visual damage (Sorghum halepense; biotype W2027C, 60 g/ha): 100% | visual damage (Sorghum halepense; biotype W2027C, 120 g/ha): 100% | visual damage (Sorghum halepense; biotype W2027C, 240 g/ha): 100% | visual damage (Digitaria sanguinalis; biotype I1781L (heterozygous), 15 g/ha): 20% | visual damage (Digitaria sanguinalis; biotype I1781L (heterozygous), 30 g/ha): 20% | visual damage (Digitaria sanguinalis; biotype I1781L (heterozygous), 60 g/ha): 53% | visual damage (Digitaria sanguinalis; biotype I1781L (heterozygous), 120 g/ha): 67% | visual damage (Digitaria sanguinalis; biotype Sensitive, 15 g/ha): 87% | visual damage (Digitaria sanguinalis; biotype Sensitive, 30 g/ha): 90% | visual damage (Digitaria sanguinalis; biotype Sensitive, 60 g/ha): 100% | visual damage (Digitaria sanguinalis; biotype Sensitive, 120 g/ha): 100%
